Patent US7541353B2, “Compounds for the treatment of hepatitis C” (Bristol-Myers Squibb Company, priority 2007, dated 2009)
Where two headings read alike, the source gives them in different places.

How the values were obtained:
HCV NS5B = target: T1, HCV NS5B (Hepatitis C virus genotype 1b, UniProt Q9WMX2); assay: Modified HCV NS5B RdRp enzyme assay (preincubation protocol); type: biochemical
T1 construct: The cDNA encoding the NS5B protein of HCV, genotype 1b; made in house; host or cells: E. coli BL21(DE3)
Protocol: HCV NS5B RdRp cloning, expression, and purification. The cDNA encoding the NS5B protein of HCV, genotype 1b, was cloned into the pET21a expression vector. The protein was expressed with an 18 amino acid C-terminal truncation to enhance the solubility. The E. coli competent cell line BL21(DE3) was used for expression of the protein. Cultures were grown at 37° C. for ˜4 hours until the cultures reached an optical density of 2.0 at 600 nm. The cultures were cooled to 20° C. and induced with 1 mM IPTG. Fresh ampicillin was added to a final concentration of 50 μg/ml and the cells were grown overnight at 20° C.
Cell pellets (3L) were lysed for purification to yield 15-24 mgs of purified NS5B. The lysis buffer consisted of 20 mM Tris-HCl, pH 7.4, 500 mM NaCl, 0.5% triton X-100, 1 mM DTT, 1 mM EDTA, 20% glycerol, 0.5 mg/ml lysozyme, 10 mM MgCl2, 15 ug/ml deoxyribonuclease I, and Complete™ protease inhibitor tablets (Roche). After addition of the lysis buffer, frozen cell pellets were resuspended using a tissue homogenizer. To reduce the viscosity of the sample, aliquots of the lysate were sonicated on ice using a microtip attached to a Branson sonicator. The sonicated lysate was centrifuged at 100,000×g for 1 hr at 4° C. and filtered through a 0.2 μm filter unit (Corning).
The protein was purified using two sequential chromatography steps: Heparin sepharose CL-6B and polyU sepharose 4B (Pharmacia). The chromatography buffers were identical to the lysis buffer but contained no lysozyme, deoxyribonuclease I, MgCl2 or protease inhibitor and the NaCl concentration of the buffer was adjusted according to the requirements for charging the protein onto the column. Each column was eluted with a NaCl gradient which varied in length from 5-50 column volumes depending on the column type. After the final chromatography step, the resulting purity of the enzyme is >90% based on SDS-PAGE analysis. The enzyme was aliquoted and stored at −80° C.
Standard HCV NS5B RdRp enzyme assay. HCV RdRp genotype 1b assays were run in a final volume of 60 μl in 96 well plates (Corning 3600). The assay buffer is composed of 20 mM Hepes, pH 7.5, 2.5 mM KCl, 2.5 mM MgCl2, 1 mM DTT, 1.6 U RNAse inhibitor (Promega N2515), 0.01 mg/ml BSA (Sigma B6917), and 2% glycerol. All compounds were serially diluted (3-fold) in DMSO and diluted further in water such that the final concentration of DMSO in the assay was 2%. HCV RdRp genotype 1b enzyme was used at a final concentration of 28 nM. A polyA template was used at 6 nM, and a biotinylated oligo-dT12 primer was used at 180 nM final concentration. Template was obtained commercially (Amersham 27-4110). Biotinylated primer was prepared by Sigma Genosys. 3H-UTP was used at 0.6 μCi (0.29 μM total UTP). Reactions were initiated by the addition of enzyme, incubated at 30° C. for 60 min, and stopped by adding 25 μl of 50 mM EDTA containing SPA beads (4 μg/μl, Amersham RPNQ 0007). Plates were read on a Packard Top Count NXT after >1 hr incubation at room temperature.
Modified HCV NS5B RdRp enzyme assay. A modified enzyme assay was performed essentially as described for the standard enzyme assay except for the following: The biotinylated oligo dT12 primer was precaptured on streptavidin-coated SPA beads by mixing primer and beads in assay buffer and incubating at room temperature for one hour. Unbound primer was removed after centrifugation. The primer-bound beads were resuspended in 20 mM Hepes buffer, pH 7.5 and used in the assay at final concentrations of 20 nM primer and 0.67 μg/μl beads. Order of addition in the assay: enzyme (1.75 nM) was added to diluted compound followed by the addition of a mixture of template (0.36 nM), 3H-UTP (0.6 μCi, 0.29 μM), and primer-bound beads, to initiate the reaction; concentrations given are final. Reactions were allowed to proceed for 4 hours at 30° C.
IC50 values for compounds were determined using seven different [I]. […]

HCV replicon cells = assay: HCV replicon FRET assay; type: cell-based
Protocol: FRET Assay Preparation. The HCV FRET screening assay was performed in 96-well cell culture plates. The FRET peptide (Anaspec, Inc.) (Taliani et al., Anal. Biochem. 1996, 240, 60-67) contains a fluorescence donor, EDANS, near one end of the peptide and an acceptor, DABCYL, near the other end. The fluorescence of the peptide is quenched by […] resonance energy transfer (RET) between the donor and the acceptor, but as the NS3 protease cleaves the peptide the products are released from RET quenching and the fluorescence of the donor becomes apparent. The assay reagent was made as follows: 5× cell Luciferase cell culture lysis reagent from Promega (#E153A) diluted to 1× with dH2O, NaCl added to 150 mM final, the FRET peptide diluted to 20 μM final from a 2 mM stock.
To prepare plates, HCV replicon cells, with or without a Renilla luciferase reporter gene, were trypsinized and plated in a 96-well plate with titrated test compounds added in columns 3 through 12; columns 1 and 2 contained a control compound (HCV control inhibitor), and the bottom row contained cells with DMSO only. The plates were then placed in a CO2 incubator at 37° C.
Assays. Subsequent to addition of the test compounds described above (FRET Assay Preparation), at various times the plate was removed and Alamar blue solution (Trek Diagnostics, #00-100) was added to measure cellular toxicity. After reading in a Cytoflour 4000 instrument (PE Biosystems), plates were rinsed with PBS and then used for FRET assay by the addition of 30 ul of the FRET peptide assay reagent described above (FRET Assay Preparation) per well. The plate was then placed into the Cytoflour 4000 instrument which had been set to 340 excite/490 emission, automatic mode for up to 20 cycles and the plate read in a kinetic mode. Typically, the signal to noise using an endpoint analysis after the reads was at least three-fold. Alternatively, after Alamar blue reading, plates were rinsed with PBS, then used for luciferase assay using the Promega Dual-Glo Luciferase Assay System or the Promega EnduRen Live Cell Substrate assay.
Compound analysis was performed by quantification of the relative HCV replicon inhibition and the relative cytotoxicity values. To calculate cytoxicity values, the average Alamar Blue fluorescence signals from the control wells were set as 100% non-toxic. The individual signals in each of the compound test wells were then divided by the average control signal and multiplied by 100% to determine […]. To calculate the HCV replicon inhibition values, an average background value was obtained from the two wells containing the highest amount of HCV control inhibitor at the end of the assay period. These numbers were similar to those obtained from naïve Huh-7 cells. The background numbers were then subtracted from the average signal obtained from the control wells and this number was used as 100% activity. The individual signals in each of the compound test wells were then divided by the averaged control values after background subtraction and multiplied by 100% to determine percent activity. EC50 values were calculated as the concentration which caused a 50% reduction in FRET or luciferase activity. The two numbers generated for the compound plate, percent cytoxicity and percent activity, were used to determine compounds of interest for further analysis.

[1] = preincubation protocol, read-out: IC50

T1 sequence (Q9WMX2 2420-2992): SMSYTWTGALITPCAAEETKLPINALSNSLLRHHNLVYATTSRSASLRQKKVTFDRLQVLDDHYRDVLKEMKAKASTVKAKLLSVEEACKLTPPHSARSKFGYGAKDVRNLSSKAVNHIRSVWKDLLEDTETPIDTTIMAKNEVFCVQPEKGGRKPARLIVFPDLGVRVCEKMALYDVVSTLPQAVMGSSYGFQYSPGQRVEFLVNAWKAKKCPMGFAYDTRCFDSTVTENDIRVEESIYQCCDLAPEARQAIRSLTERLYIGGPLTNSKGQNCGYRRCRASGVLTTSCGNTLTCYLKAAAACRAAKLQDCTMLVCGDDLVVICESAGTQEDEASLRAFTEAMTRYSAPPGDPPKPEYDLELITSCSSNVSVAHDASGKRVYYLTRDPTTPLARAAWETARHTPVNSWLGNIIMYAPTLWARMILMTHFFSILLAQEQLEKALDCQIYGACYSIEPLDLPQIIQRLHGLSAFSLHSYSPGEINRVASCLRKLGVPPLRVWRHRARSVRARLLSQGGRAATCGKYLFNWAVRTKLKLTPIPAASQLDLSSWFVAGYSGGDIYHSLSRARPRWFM

| SMILES | IC50 (HCV NS5B) [nM] | EC50 (HCV replicon cells; Hepatitis C virus) [nM] | other results |
| --- | --- | --- | --- |
| COc1ccc2c(c1)C1CC1(C(=O)C1C3CCC1CC3)Cn1c-2c(C2CCCCC2)c2ccc(C(=O)NS(=O)(=O)N(C)C)cc21 (stereo not drawn) |  |  | IC50 (HCV NS5B; [1]): 4.58 to 500 nM; EC50 (HCV replicon cells; Hepatitis C virus, FRET assay, read-out: EC50): 4.58 to 500 nM |
| COc1ccc2c(c1)C1CC1(C(=O)N1C3CCC1CC(=O)C3)Cn1c-2c(C2CCCCC2)c2ccc(C(=O)NS(=O)(=O)N(C)C)cc21 (stereo not drawn) | 4.58 to 500 | 4.58 to 500 |  |
| COc1ccc2c(c1)C1CC1(C(=O)N1CC3CCC(C1)O3)Cn1c-2c(C2CCCCC2)c2ccc(C(=O)NS(=O)(=O)N(C)C)cc21 (stereo not drawn) |  | 4.58 to 500 | IC50 (HCV NS5B; [1]): 4.58 to 500 nM |
| COc1ccc2c(c1)C1CC1(C(=O)N1C3CCC1CC(N(CCN(C)C)Cc1ccccc1)C3)Cn1c-2c(C2CCCCC2)c2ccc(C(=O)NS(=O)(=O)C3CC3)cc21 (stereo not drawn) | 4.58 to 500 | 4.58 to 500 |  |
| COc1ccc2c(c1)C1CC1(C(=O)N1C3CCC1CC(O)(C1CC1)C3)Cn1c-2c(C2CCCCC2)c2ccc(C(=O)NS(=O)(=O)N(C)C)cc21 (stereo not drawn) | 4.58 to 500 | 4.58 to 500 |  |
| COc1ccc2c(c1)C1CC1(C(=O)N1C3CCC1CC(NC(C)C)C3)Cn1c-2c(C2CCCCC2)c2ccc(C(=O)NS(=O)(=O)N(C)C)cc21 (stereo not drawn) | 4.58 to 500 | 4.58 to 500 |  |
| COc1ccc2c(c1)C1CC1(C(=O)N1C3CCC1CC(=O)C3)Cn1c-2c(C2CCCCC2)c2ccc(C(=O)NS(C)(=O)=O)cc21 (stereo not drawn) | 4.58 to 500 | 4.58 to 500 |  |
| COc1ccc2c(c1)C1CC1(C(=O)N1C3CCC1CC(=O)C3)Cn1c-2c(C2CCCCC2)c2ccc(C(=O)NS(=O)(=O)C(C)C)cc21 (stereo not drawn) | 4.58 to 500 | 4.58 to 500 |  |
| CCC(C)S(=O)(=O)NC(=O)c1ccc2c(C3CCCCC3)c3n(c2c1)CC1(C(=O)N2C4CCC2CC(N(C)Cc2ccccc2)C4)CC1c1cc(OC)ccc1-3 (stereo not drawn) | 4.58 to 500 | 4.58 to 500 |  |
| COc1ccc2c(c1)C1CC1(C(=O)N1C3CCC1CC(NCc1ccccc1)C3)Cn1c-2c(C2CCCCC2)c2ccc(C(=O)NS(=O)(=O)C(C)C)cc21 (stereo not drawn) | 4.58 to 500 | 4.58 to 500 |  |
| CCC(C)S(=O)(=O)NC(=O)c1ccc2c(C3CCCCC3)c3n(c2c1)CC1(C(=O)N2C4CCC2CC(NC)C4)CC1c1cc(OC)ccc1-3 (stereo not drawn) | 4.58 to 500 | 4.58 to 500 |  |
| COc1ccc2c(c1)C=C(C(=O)N1C3CCCC1COC3)Cn1c-2c(C2CCCCC2)c2ccc(C(=O)NS(=O)(=O)C3CC3)cc21 | 4.58 to 500 | 4.58 to 500 |  |
| COc1ccc2c(c1)C1CC1(C(=O)N1C3CCC1CC(O)(C(F)(F)F)C3)Cn1c-2c(C2CCCCC2)c2ccc(C(=O)NS(=O)(=O)N(C)C)cc21 (stereo not drawn) | 4.58 to 500 | 4.58 to 500 |  |
| COc1ccc2c(c1)[C@@H]1C[C@]1(C(=O)N1C3COCC1COC3)Cn1c-2c(C2CCCCC2)c2ccc(C(=O)NS(=O)(=O)N(C)C)cc21 | 4.58 to 500 | 4.58 to 500 |  |
| COc1ccc2c(c1)[C@@H]1C[C@]1(C(=O)N1C3CCC(O)C1CCC3O)Cn1c-2c(C2CCCCC2)c2ccc(C(=O)NS(=O)(=O)N(C)C)cc21 (stereo partly drawn) | 4.58 to 500 | 4.58 to 500 |  |
| COc1ccc2c(c1)C1CC1(C(=O)N1C3COCC1COC3)Cn1c-2c(C2CCCCC2)c2ccc(C(=O)NS(=O)(=O)C(C)C)cc21 (stereo not drawn) | 4.58 to 500 | 4.58 to 500 |  |
| CCC(C)S(=O)(=O)NC(=O)c1ccc2c(C3CCCCC3)c3n(c2c1)CC1(C(=O)N2C4CCC[C@@H]2COC4)CC1c1cc(OC)ccc1-3 (stereo partly drawn) | 4.58 to 500 | 4.58 to 500 |  |
| COc1ccc2c(c1)C1CC1(C(=O)N1C3COCC1COC3)Cn1c-2c(C2CCCCC2)c2ccc(C(=O)NS(=O)(=O)CC(C)C)cc21 (stereo not drawn) | 4.58 to 500 | 4.58 to 500 |  |
| COc1ccc2c(c1)C1CC1(C(=O)N1C3CCC[C@@H]1COC3)Cn1c-2c(C2CCCCC2)c2ccc(C(=O)NS(=O)(=O)CC(C)C)cc21 (stereo partly drawn) | 4.58 to 500 | 4.58 to 500 |  |
| COc1ccc2c(c1)C1CC1(C(=O)N1C3CCC1CC(NCC1CC1)C3)Cn1c-2c(C2CCCCC2)c2ccc(C(=O)NS(=O)(=O)N(C)C)cc21 (stereo not drawn) [drawing 23] | 4.58 to 500 | 4.58 to 500 |  |
| COc1ccc2c(c1)C1CC1(C(=O)N1C3CCC1CC(NCC1CC1)C3)Cn1c-2c(C2CCCCC2)c2ccc(C(=O)NS(=O)(=O)N(C)C)cc21 (stereo not drawn) [drawing 26] |  |  | IC50 (HCV NS5B; preincubation protocol): 4.58 to 500 nM; EC50 (HCV replicon cells; FRET assay): 4.58 to 500 nM |
| CNC1CC2CCC(C1)N2C(=O)C12CC1c1cc(OC)ccc1-c1c(C3CCCCC3)c3ccc(C(=O)NS(=O)(=O)N(C)C)cc3n1C2 (stereo not drawn) [drawing 28] | 4.58 to 500 | 4.58 to 500 |  |
| CNC1CC2CCC(C1)N2C(=O)C12CC1c1cc(OC)ccc1-c1c(C3CCCCC3)c3ccc(C(=O)NS(=O)(=O)N(C)C)cc3n1C2 (stereo not drawn) [drawing 29] |  |  | IC50 (HCV NS5B; preincubation protocol): 4.58 to 500 nM; EC50 (HCV replicon cells; FRET assay): 4.58 to 500 nM |
| COc1ccc2c(c1)C1CC1(C(=O)N1C3CCC1CC(N(C)Cc1ccccc1)C3)Cn1c-2c(C2CCCCC2)c2ccc(C(=O)NS(=O)(=O)C(C)C)cc21 (stereo not drawn) [drawing 36] | 4.58 to 500 | 4.58 to 500 |  |
| COc1ccc2c(c1)[C@@H]1C[C@]1(C(=O)N1C3CCC1CC(C)(O)C3)Cn1c-2c(C2CCCCC2)c2ccc(C(=O)NS(=O)(=O)N(C)C)cc21 (stereo partly drawn) [drawing 46] | 4.58 to 500 | 4.58 to 500 |  |
| COc1ccc2c(c1)[C@@H]1C[C@]1(C(=O)N1C3CCC1CC(C)(O)C3)Cn1c-2c(C2CCCCC2)c2ccc(C(=O)NS(=O)(=O)N(C)C)cc21 (stereo partly drawn) [drawing 47] |  |  | IC50 (HCV NS5B; preincubation protocol): 4.58 to 500 nM; EC50 (HCV replicon cells; FRET assay): 4.58 to 500 nM |
| COc1ccc2c(c1)C1CC1(C(=O)N1C3CCCC1COC3)Cn1c-2c(C2CCCCC2)c2ccc(C(=O)NS(=O)(=O)C3CCCCC3)cc21 (stereo not drawn) [drawing 54] |  |  | IC50 (HCV NS5B; preincubation protocol): 4.58 to 500 nM; EC50 (HCV replicon cells; FRET assay): 4.58 to 500 nM |
